Results: patent US20100048534A1, “CRYSTALLINE LESTAURTINIB HYDRATES AND CRYSTALLINE LESTAURTINIB HEMIHYDRATE HEMIACETONITRILEATE AND CRYSTALLINE LESTAURTINIB HEMIHYDRATE HEMITETRAHYDROFURANATE” (priority 2005, published 2010)

Experiment: Solid-state stability and moisture sorption versus relative humidity (dynamic moisture sorption gravimetry, DMSG)
Assay type: physicochemical

C[C@]12O[C@H](C[C@]1(O)CO)n1c3ccccc3c3c4c(c5c6ccccc6n2c5c31)CNC4=O [Crystalline lestaurtinib anhydrate, lestaurtinib anhydrate]
water content of solid-state phase by DMSG (25° C., between 0% and 5% RH, w/w): less than 0.5% | behaviour above 5% RH (ambient temperature, above 5% RH): absorbs moisture above 5% RH to form crystalline lestaurtinib monohydrate
